The record followed here is patent US12630515B2, “Small molecule prostagladin transport inhibitors” (ALBERT EINSTEIN COLLEGE OF MEDICINE, priority 2019, dated 2026).

The assay deals with T1, rat PGT (Rattus norvegicus, UniProt Q00910).
T1 construct: expressed in transfected cells
The experiment in a line: PGT inhibition: [3H]PGE2 uptake in MDCK cells stably transfected with rat PGT. The following applies: room temperature. The class given is cell-based. The protocol:
MDCK cells stably transfected with rat PGT ae seeded at 15-20% confluence on 96-well deepwell plates. The day on which the cells are seeded is considered day 1. PGE2 uptake experiments are conducted on day 4. All of the PGE2 uptake experiments are conducted at room temperature. On day 4, cells are washed twice with Waymouth buffer (135 mM NaCl, 13 mM H-Hepes, 13 mM Na-Hepes, 2.5 mM CaCl2, 1.2 mM MgCl2, 0.8 mM MgSO4, 5 mM KCl, and 28 mM D-glucose). Then 200 μL of Waymouth buffer containing [^3H]PGE2 (available from Perkin Elmer) is added to each well. At the designed time, the uptake of [^3H]PGE2 is stopped by aspiration of uptake buffer; followed by immediate washing twice with 500 μL of chilled Waymouth buffer. Cells are then lysed with 100 μL lysis buffer containing 0.25% SDS and 0.05 N NaOH. 1.5 mL of scintillation solution is added to each well, and intracellular [^3H]PGE2 is counted via a Beta Counter.
For preliminary testing of the compounds, 20 μL of Waymouth buffer containing the compound is added to each well; this was immediately followed by the addition of 180 μL of Waymouth buffer containing [^3H]PGE2. In each well, the total volume of uptake medium is 200 μL. Test compounds are first dissolved in organic solvent, such as EtOH, and then diluted in Waymouth buffer. The percent inhibition of [^3H]PGE2 uptake by compounds is calculated as [(uptakevehicle−uptakeinhibitor)÷(uptakevehicle)]×100.
To determine IC50 of each compound, Waymouth buffer containing various concentrations of the compound is added to each well; immediately followed by the addition of 180 μL of Waymouth buffer containing [^3H]PGE2. IC50 was calculated by fitting the following equation. y=m1-m1*(m0/(m2+m0)).

Each structure is given as a SMILES string.

`CCOC(=O)C(CC)(CCC(=O)O)c1csc(Nc2ccccc2O)n1` (racemic) [Cmp. 1, 4-ethoxycarbonyl-4-[2-(2-hydroxyanilino)thiazol-4-yl]hexanoic acid]: the IC50 was under 1000 nM.
As to `CCOC(=O)C(CC)(CCC(=O)O)c1csc(Nc2ccc(C)cc2)n1` (racemic) [Cmp. 3, 4-ethoxycarbonyl-4-[2-(4-methylanilino)thiazol-4-yl]hexanoic acid], the concentration for half-maximal inhibition (IC50) is under 20000 nM.
To `CCOC(=O)C(CC)(CCC(=O)O)c1cncc(Nc2ccc(C)cc2)n1` (racemic) [Cmp. 5, 4-ethoxycarbonyl-4-[6-(4-methylanilino)pyrazin-2-yl]hexanoic acid] belongs under 10000 nM; to `CCOC(=O)C(CC)(CCC(=O)O)c1csc(Nc2ccc(F)cc2F)n1` (racemic) [Cmp. 6, 4-[2-(2,4-difluoroanilino)thiazol-4-yl]-4-ethoxycarbonyl-hexanoic acid], under 10000 nM; to `CCC(CC)(CCC(=O)O)c1csc(Nc2ccccc2OC)n1` (racemic) [Cmp. 7, 4-ethyl-4-[2-(2-methoxyanilino)thiazol-4-yl]hexanoic acid], under 10000 nM.
`CCOC(=O)C(CC)(CCC(=O)O)c1cncc(Nc2ccc(F)cc2F)n1` (racemic) [Cmp. 11, 4-[6-(2,4-difluoroanilino)pyrazin-2-yl]-4-ethoxycarbonyl-hexanoic acid] returned an IC50 of under 1000 nM.
For `CCOC(=O)C(CC)(CCC(=O)O)c1csc(Nc2ccc(Cl)cc2Cl)n1` (racemic) [Cmp. 14a, 4-[2-(2,4-dichloroanilino)thiazol-4-yl]-4-ethoxycarbonyl-hexanoic acid] the value was under 1000 nM; for `CCOC(=O)C(CC)(CCC(=O)O)c1nc(Nc2ccc(Cl)cc2Cl)sc1Br` (racemic) [Cmp. 14b, 4-[5-bromo-2-(2,4-dichloroanilino)thiazol-4-yl]-4-ethoxycarbonyl-hexanoic acid], under 1000 nM; for `CCOC(=O)C(CC)(CCC(=O)O)c1cncc(Nc2ccccc2OC)n1` (racemic) [Cmp. 17, 4-ethoxycarbonyl-4-[6-(2-methoxyanilino)pyrazin-2-yl]hexanoic acid], under 1000 nM.
The molecule `CCOC(=O)C(CC)(CCC(=O)O)c1cncc(Nc2cc(F)ccc2F)n1` (racemic) [Cmp. 20, 4-[6-(2,5-difluoroanilino)pyrazin-2-yl]-4-ethoxycarbonyl-hexanoic acid] came in with an IC50 of under 1000 nM.
For `CCOC(=O)C(CC)(CCC(=O)O)c1nc(Nc2ccc(Cl)cc2Cl)sc1C` (racemic) [Cmp. 23, 4-[2-(2,4-dichloroanilino)-5-methyl-thiazol-4-yl]-4-ethoxycarbonyl-hexanoic acid] the value was under 1000 nM; for `CCOC(=O)C(CC)(CCC(=O)O)c1nc(Nc2ccccc2Cl)sc1Cl` (racemic) [Cmp. 27 (RS), 4-[5-chloro-2-(2-chloroanilino)thiazol-4-yl]-4-ethoxycarbonyl-hexanoic acid], under 1000 nM; for `CCOC(=O)C(CC)(CCC(=O)O)c1nc(Nc2ccc(F)cc2F)sc1C` (racemic) [compound 34, 4-(2-((2,4-difluorophenyl)amino)-5-methylthiazol-4-yl)-4-(ethoxycarbonyl)hexanoic acid], under 10000 nM.
With `CCC(CCC(=O)O)(C(=O)OCC(C)C)c1cncc(Nc2ccc(C)cc2)n1` (racemic) [compound 35, 4-(isobutoxycarbonyl)-4-(6-(p-tolylamino)pyrazin-2-yl)hexanoic acid], the 50% inhibitory concentration (IC50) was under 10000 nM.
`CCOC(=O)C(CCC(=O)O)(CC1CC1)c1cncc(Nc2ccc(C)cc2)n1` (racemic) [compound 36, 4-(cyclopropylmethyl)-5-ethoxy-5-oxo-4-(6-(p-tolylamino)pyrazin-2-yl)pentanoic acid] yielded an IC50 of under 10000 nM.
To `CCOC(=O)C(CC)(CCC(=O)O)c1cncc(Nc2ccc(O)c(F)c2)n1` (racemic) [compound 37, 4-(ethoxycarbonyl)-4-(6-((3-fluoro-4-hydroxyphenyl)amino)pyrazin-2-yl)hexanoic acid] belongs under 1000 nM.
To `CCC(CCC(=O)O)(COC)c1cncc(Nc2ccc(F)cc2F)n1` (racemic) [compound 38, 4-(6-((2,4-difluorophenyl)amino)pyrazin-2-yl)-4-(methoxymethyl)hexanoic acid] belongs under 10000 nM; to `CCC(CCC(=O)O)(C(=O)OC1(C)CC1)c1cncc(Nc2ccc(F)cc2F)n1` (racemic) [compound 39, 4-(6-((2,4-difluorophenyl)amino)pyrazin-2-yl)-4-((1-methylcyclopropoxy)carbonyl)hexanoic acid], under 1000 nM; to `CCOC(=O)C(CC)(CCC(=O)O)c1nc(Nc2ccc(Cl)cc2Cl)sc1Cl` (racemic) [compound 40, 4-(5-chloro-2-((2,4-dichlorophenyl)amino)thiazol-4-yl)-4-(ethoxycarbonyl)hexanoic acid], under 1000 nM.
To `CCOC(=O)C(CC)(CCC(=O)O)c1nc(Nc2ccccc2Cl)sc1Cl` (single isomer, unassigned) [27 (enantiomer 1)] belongs under 1000 nM.
`CCC(CC)(CCC(=O)O)c1csc(Nc2ccc(C)cc2)n1` [Cmp. 2, 4-ethyl-4-[2-(4-methylanilino)thiazol-4-yl]hexanoic acid]: the IC50 was under 100000 nM.
To `CCC(CC)(CCC(=O)O)c1csc(Nc2ccccc2Cl)n1` [Cmp. 8, 4-[2-(2-chloroanilino)thiazol-4-yl]-4-ethyl-hexanoic acid] belongs under 10000 nM.
`CCC(CC)(CCC(=O)O)c1csc(Nc2cccc(OC)c2)n1` [Cmp. 9, 4-ethyl-4-[2-(3-methoxyanilino)thiazol-4-yl]hexanoic acid] yielded an IC50 of under 10000 nM.
The molecule `CCC(CC)(CCC(=O)O)c1nc(Nc2ccccc2O)sc1C` [Cmp. 10, 4-ethyl-4-[2-(2-hydroxyanilino)-5-methyl-thiazol-4-yl]hexanoic acid] came in with an IC50 of under 1000 nM.
The molecule `CCOC(=O)C(CC)(CCC(=O)O)c1ccnc(Nc2ccc(C)cc2)n1` (stereo not drawn) [Cmp. 13, 4-ethoxycarbonyl-4-[2-(4-methylanilino)pyrimidin-4-yl]hexanoic acid] came in with an IC50 of under 10000 nM.
Turning to `CCC(CC)(CCC(=O)O)c1cncc(Nc2ccc(F)cc2F)n1` [Cmp. 18, 4-[6-(2,4-difluoroanilino)pyrazin-2-yl]-4-ethyl-hexanoic acid], the IC50 is under 1000 nM.
For `CCc1ncc(Nc2ccc(F)cc2F)nc1C(CC)(CC)CCC(=O)O` [Cmp. 19, 4-[6-(2,4-difluoroanilino)-3-ethyl-pyrazin-2-yl]-4-ethyl-hexanoic acid] the value was under 1000 nM.
In the case of `CCC(CC)(CCC(=O)O)c1nc(Nc2ccc(F)cc2F)sc1C` [Cmp. 21, 4-[2-(2,4-difluoroanilino)-5-methyl-thiazol-4-yl]-4-ethyl-hexanoic acid], the IC50 was under 1000 nM.
For `CCC(CC)(CCC(=O)O)c1nc(Nc2ccc(F)cc2F)sc1Br` [Cmp. 22b, 4-[5-bromo-2-(2,4-difluoroanilino)thiazol-4-yl]-4-ethyl-hexanoic acid] the value was under 1000 nM; for `CCC(CC)(CCC(=O)O)c1nc(Nc2ccc(Cl)cc2Cl)sc1C` [Cmp. 24, 4-[2-(2,4-dichloroanilino)-5-methyl-thiazol-4-yl]-4-ethyl-hexanoic acid], under 1000 nM; for `CCC(CC)(CCC(=O)O)c1cncc(Nc2ccccc2Cl)n1` [Cmp. 28, 4-[6-(2-chloroanilino)pyrazin-2-yl]-4-ethyl-hexanoic acid], under 1000 nM.
To `CCC(CC)(CCC(=O)O)c1cncc(Nc2cc(F)c(F)cc2F)n1` [Cmp. 29, 4-ethyl-4-[6-(2,4,5-trifluoroanilino)pyrazin-2-yl]hexanoic acid] belongs under 1000 nM; to `CCC(CC)(CCC(=O)O)c1csc(-c2ccccc2)n1` [compound 30, 4-ethyl-4-(2-phenylthiazol-4-yl)hexanoic acid], under 10000 nM.
`CCC(CC)(CCC(=O)O)c1csc(Nc2ccc(C(F)(F)F)cc2)n1` [compound 31, 4-ethyl-4-(2-((4-(trifluoromethyl)phenyl)amino)thiazol-4-yl)hexanoic acid]: the half-maximal inhibitory concentration (IC50) is under 20000 nM.
For `CCC(CC)(CCC(=O)O)c1coc(Nc2ccc(C)cc2)n1` [compound 32, 4-ethyl-4-(2-(p-tolylamino)oxazol-4-yl)hexanoic acid] the value was under 100000 nM; for `CCC(CC)(CCC(=O)O)c1nnc(Nc2ccc(C)cc2)o1` [compound 33, 4-ethyl-4-(5-(p-tolylamino)-1,3,4-oxadiazol-2-yl)hexanoic acid], under 10000 nM.

A word on the IC50: it is the point on the concentration scale where inhibition reaches its midpoint. Read a high IC50 as a need for much substance.
